Test results published in US8729093B2 (priority 2006, dated 2014).
Where two headings read alike, the source gives them in different places.

Columns and labels:
[1] = system: rice blast; format: in vivo, Pyricularia oryzae
[2] = system: rice "Bakanae" disease; experiment: whole plant or invertebrate; format: in vivo; details: Oryza sativa, 504 h, read-out: prevention value
[3] = system: rice blast; experiment: whole plant or invertebrate; format: in vivo; details: Pyricularia oryzae, 504 h, read-out: prevention value
[4] = rice (Sachikaze), nursery box soil treated at sowing time or transplanting time, 400 g a.i./10 a, observed 7 days after inoculation, untreated plants = 3

Row | Structure (SMILES) | disease severity [1, 4] | pest or weed control at 0.02 % a.i. [2] [%] | pest or weed control at 0.02 % a.i. [3] [%] | disease severity ([1]; in vivo)
1 | CC1(C(F)(F)F)Cc2ccccc2C(c2cnc3ccccc3c2)=N1 (stereo not shown) [Compound No. 1-387, 3-(3-methyl-3-trifluoromethyl-3,4-dihydroisoquinolin-1-yl)quinoline] | 0 | – | – | –
2 | CC1(C)N=C(c2cnc3ccccc3c2)c2cccc(F)c2C1(C)C [Compound No. 1-866, 3-(5-fluoro-3,3,4,4-tetramethyl-3,4-dihydroisoquinolin-1-yl)quinoline] | 0 | ≥ 80 | ≥ 80 | –
3 | CC1(C)Cc2c(Br)cccc2C(c2cnc3ccccc3c2)=N1 [Compound No. 1-56, 3-(5-bromo-3,3-dimethyl-3,4-dihydroisoquinolin-1-yl)quinoline] | 0 | – | – | –
4 | CC1(CC(F)(F)F)Cc2ccccc2C(c2cnc3ccccc3c2)=N1 (stereo not shown) [Compound No. 1-425, 3-[3-methyl-3-(2,2,2-trifluoroethyl)-3,4-dihydroisoquinolin-1-yl]quinoline] | 0 | – | – | –
5 | CC1(c2ccc(F)cc2)Cc2ccccc2C(c2cnc3ccccc3c2)=N1 (stereo not shown) [Compound No. 1-502, 3-[3-methyl-3-(4-fluorophenyl)-3,4-dihydroisoquinolin-1-yl]quinoline] | 0 | – | – | –
6 | CC1(C)N2OC2(c2cnc3ccccc3c2)c2ccccc2C1(F)F (stereo not shown) [Compound No. 2-134, 4,4-difluoro-3,3-dimethyl-8b-quinolin-3-yl-4,8b-dihydro-3H-oxazireno[3,2-a]isoquinoline] | – | – | ≥ 80 | –
7 | CC1(C)Cc2c(ccc(F)c2F)C(c2cnc3ccccc3c2)=N1 [Compound No. 1-117, 3-(5,6-difluoro-3,3-dimethyl-3,4-dihydroisoquinolin-1-yl)quinoline] | 0 | – | – | –
8 | CC1(C)c2cc(F)ccc2C(c2cnc3ccccc3c2)=[N+]([O-])C1(C)C [Compound No. 3-109, 3-(6-fluoro-3,3,4,4-tetramethyl-2-oxido-3,4-dihydroisoquinolin-1-yl)quinoline] | 0 | – | – | –
9 | CC1(C)N=C(c2cnc3ccccc3c2)c2ccccc2C1(C)C [Compound No. 1-865, 3-(3,3,4,4-tetramethyl-3,4-dihydroisoquinolin-1-yl)quinoline] | – | ≥ 80 | – | –
10 | CC1(C)N=C(c2cnc3ccccc3c2)c2ccccc2C1(F)F [Compound No. 1-929, 3-(4,4-difluoro-3,3-dimethyl-3,4-dihydroisoquinolin-1-yl)quinoline] | 0 | ≥ 80 | ≥ 80 | –
11 | CC1(C)c2c(F)cccc2C(c2cnc3ccccc3c2)=[N+]([O-])C1(C)C [Compound No. 3-100, 3-(5-fluoro-3,3,4,4-tetramethyl-2-oxido-3,4-dihydroisoquinolin-1-yl)quinoline] | 0 | ≥ 80 | ≥ 80 | –
12 | CC1(C)c2ccccc2C2(c3cnc4ccccc4c3)ON2C1(C)C (stereo not shown) [Compound No. 2-91, 3,3,4,4-tetramethyl-8b-quinolin-3-yl-4,8b-dihydro-3H-oxazireno[3,2-a]isoquino line] | – | – | – | 0
13 | CCCC1(C)Cc2c(F)cccc2C(c2cnc3ccccc3c2)=N1 (stereo not shown) [Compound No. 1-185, 3-(5-fluoro-3-methyl-3-propyl-3,4-dihydroisoquinolin-1-yl)quinoline] | 0 | – | – | –
14 | CC1(C)[N+]([O-])=C(c2cnc3ccccc3c2)c2cccc(F)c2C1(F)F [Compound No. 3-135, 3-(4,4,5-trifluoro-3,3-dimethyl-2-oxido-3,4-dihydroisoquinolin-1-yl)quinoline] | 0 | ≥ 80 | ≥ 80 | –
15 | CC1(C)c2c(F)cccc2C2(c3cnc4ccccc4c3)ON2C1(C)C (stereo not shown) [Compound No. 2-100, 5-fluoro-3,3,4,4-tetramethyl-8b-quinolin-3-yl-4,8b-dihydro-3H-oxazireno[3,2-a]isoquinoline] | – | ≥ 80 | ≥ 80 | –
16 | CC1(C)N=C(c2cnc3ccccc3c2)c2cccc(F)c2C1(F)F [Compound No. 1-930, 3-(4,4,5-trifluoro-3,3-dimethyl-3,4-dihydroisoquinolin-1-yl)quinoline] | 0 | ≥ 80 | ≥ 80 | –
17 | CC1(C)Cc2c(Cl)cccc2C(c2cnc3ccccc3c2)=N1 [Compound No. 1-44, 3-(5-chloro-3,3-dimethyl-3,4-dihydroisoquinolin-1-yl)quinoline] | 0 | – | – | –
18 | CC1(C)N2OC2(c2cnc3ccccc3c2)c2cccc(F)c2C1(F)F (stereo not shown) [Compound No. 2-135, 4,4,5-trifluoro-3,3-dimethyl-8b-quinolin-3-yl-4,8b-dihydro-3H-oxazireno[3,2-a]isoquinoline] | – | – | ≥ 80 | –
19 | CC1(C)Cc2c(F)cccc2C(c2cnc3ccccc3c2)=N1 [Compound No. 1-32, 3-(5-fluoro-3,3-dimethyl-3,4-dihydroisoquinolin-1-yl)quinoline] | 0 | ≥ 80 | ≥ 80 | –
20 | CC1(C)N=C(c2cnc3c(F)cccc3c2)c2cccc(F)c2C1(C)C [Compound No. 1-918, 8-fluoro-3-(5-fluoro-3,3,4,4-tetramethyl-3,4-dihydroisoquinolin-1-yl)quinoline] | 0 | – | – | –
21 | CC1(C)[N+]([O-])=C(c2cnc3ccccc3c2)c2ccccc2C1(F)F [Compound No. 3-134, 3-(4,4-difluoro-3,3-dimethyl-2-oxido-3,4-dihydroisoquinolin-1-yl)quinoline] | 0 | ≥ 80 | ≥ 80 | –
22 | Cc1cccc2cc(C3=NC(C)(C)C(C)(C)c4c(F)cccc43)cnc12 [Compound No. 1-919, 3-(5-fluoro-3,3,4,4-tetramethyl-3,4-dihydroisoquinolin-1-yl)-8-methylquinoline] | 0 | – | – | –
